According to patent publication US6518270B1, “Heterocyclic compounds for inhibition of gastric acid secretion, processes for their preparation and pharmaceutical compositions thereof” (AstraZeneca AB, priority 1997, dated 2003):
pIC50: −log10 of the molar value.

Target: T1, H+,K+-ATPase
T1 construct: from tissue
Assay: Determination of H+,K+-ATPase activity
Format: biochemical
Details: membrane vesicles, 15 min at +37° C., pH 7.4, 10 mM KCl, 2 mM ATP; release of inorganic phosphate
Protocol: Determination of H^+,K^+-ATPase Activity
Membrane vesicles (2.5 to 5 μg) were incubated for 15 min at +37° C. in 18 mM Pipes/Tris buffer pH 7.4 containing 2 mM MgCl2, 10 mM KCl and 2 mM ATP. The ATPase activity was estimated as release of inorganic phosphate from ATP, as described by LeBel et al. (1978) Anal. Biochem. 85, 86-89.

T1 sequence (P20648 whole entry): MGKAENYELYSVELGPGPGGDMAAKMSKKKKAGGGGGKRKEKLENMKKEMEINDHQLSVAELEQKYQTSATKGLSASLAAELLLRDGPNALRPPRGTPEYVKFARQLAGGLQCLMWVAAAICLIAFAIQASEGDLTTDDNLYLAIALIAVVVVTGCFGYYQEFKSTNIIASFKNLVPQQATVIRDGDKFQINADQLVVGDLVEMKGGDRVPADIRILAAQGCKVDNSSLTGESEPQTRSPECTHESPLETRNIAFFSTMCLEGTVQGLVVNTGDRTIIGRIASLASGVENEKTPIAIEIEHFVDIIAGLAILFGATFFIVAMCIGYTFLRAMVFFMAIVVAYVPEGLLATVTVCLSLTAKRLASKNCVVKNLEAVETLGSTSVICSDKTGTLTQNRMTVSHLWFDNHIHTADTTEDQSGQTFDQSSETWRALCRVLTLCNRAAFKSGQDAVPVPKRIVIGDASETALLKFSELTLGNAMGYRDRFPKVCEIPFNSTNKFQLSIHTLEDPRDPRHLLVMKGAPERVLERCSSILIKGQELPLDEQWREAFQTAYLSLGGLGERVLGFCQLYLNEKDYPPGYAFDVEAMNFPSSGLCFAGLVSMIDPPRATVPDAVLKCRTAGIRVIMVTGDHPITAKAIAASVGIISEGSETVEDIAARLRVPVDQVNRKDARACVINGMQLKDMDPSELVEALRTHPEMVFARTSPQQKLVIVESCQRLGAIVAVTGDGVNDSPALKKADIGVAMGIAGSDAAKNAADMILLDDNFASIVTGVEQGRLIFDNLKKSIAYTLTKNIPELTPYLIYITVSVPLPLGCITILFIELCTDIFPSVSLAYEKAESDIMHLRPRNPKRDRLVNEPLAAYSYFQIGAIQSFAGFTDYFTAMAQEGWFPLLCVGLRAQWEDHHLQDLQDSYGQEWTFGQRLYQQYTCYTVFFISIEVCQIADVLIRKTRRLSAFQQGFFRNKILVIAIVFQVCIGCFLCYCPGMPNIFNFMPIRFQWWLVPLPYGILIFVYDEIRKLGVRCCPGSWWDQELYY
T1 sequence (P51164 whole entry partner): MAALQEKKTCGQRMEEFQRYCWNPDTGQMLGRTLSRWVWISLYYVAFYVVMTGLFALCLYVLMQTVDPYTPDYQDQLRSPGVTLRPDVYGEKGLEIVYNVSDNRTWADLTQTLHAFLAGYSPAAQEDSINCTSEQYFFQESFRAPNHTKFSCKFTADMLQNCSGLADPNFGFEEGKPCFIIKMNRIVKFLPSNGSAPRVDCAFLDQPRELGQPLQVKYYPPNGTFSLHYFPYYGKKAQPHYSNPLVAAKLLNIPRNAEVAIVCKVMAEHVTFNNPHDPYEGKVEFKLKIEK

pIC50 | SMILES
6.80 | Cc1cccc(C)c1CNc1nccn2c(C)c(C)nc12 [Example 1, 2,3-dimethyl-8-(2,6-dimethylbenzylamino)imidazo [1,2-a]pyrazine]
5.56 | Cc1cccc(C)c1COc1nccn2c(C)c(C)nc12 [Example 2, 2,3-dimethyl-8-(2,6-dimethylbenzyloxy)imidazo[1,2-a]pyrazine]
